Measurements published in PubChem BioAssay AID328 (DTP/NCI, 2004).
“And” between values parts separate entries of the source, which are not always exact repeats. Equal entries are not always repeated. Inconclusive results and toxic doses are left out. Positions of bridges follow the written chain, without caps; N, C: chain ends. Non-standard residues stand in square brackets, D forms with d. Residues, ends and D or L forms follow the SMILES beside them. Chains are numbered I, II in the order given. *: point of attachment. Quinoxaline2carbonyl = O=C(c1cnc2ccccc2n1)*; NMeV = CN[CH](C(=O)O)C(C)C; NMeC = CN[CH](CS)C(=O)O

System: BDF1 mice, P388 leukemia ip, median survival T/C
Assay: NCI In Vivo Anticancer Drug Screen. Data for tumor model P388 Leukemia (intraperitoneal) in B6D2F1 (BDF1) mice
Conditions: endpoint: median survival time, higher = longer survival
Outline: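 Read-out is survival of treated animals expressed relative to the vehicle group, as a T/C ratio.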

[1] = dose: 12.5 mg/kg/injection, schedule: Q01DX009 (ip), vehicle: Klucel (hydroxypropylcellulose) (HPC)
[2] = dose: 25.0 mg/kg/injection, schedule: Q01DX009 (ip), vehicle: Klucel (hydroxypropylcellulose) (HPC)
[3] = dose: 25.0 mg/kg/injection, schedule: Q01DX009 (ip), vehicle: saline
[4] = dose: 50.0 mg/kg/injection, schedule: Q01DX009 (ip), vehicle: saline
[5] = dose: 100.0 mg/kg/injection, schedule: Q01DX009 (ip), vehicle: saline
[6] = dose: 200.0 mg/kg/injection, schedule: Q01DX009 (ip), vehicle: saline
[7] = dose: 400.0 mg/kg/injection, schedule: Q01DX009 (ip), vehicle: saline
[8] = dose: 50.0 mg/kg/injection, schedule: Q01DX009 (ip), vehicle: saline with Tween-80
[9] = dose: 100.0 mg/kg/injection, schedule: Q04DX003 (ip), vehicle: saline
[10] = dose: 200.0 mg/kg/injection, schedule: Q04DX003 (ip), vehicle: saline
[11] = dose: 400.0 mg/kg/injection, schedule: Q04DX003 (ip), vehicle: saline

With CN(C)N=C(Cc1ccccc1)Cc1ccccc1 the T/C (dose: 12.5 mg/kg/injection, schedule: Q04DX003 (ip), vehicle: saline with Tween-80) was 108 % of control, the T/C (dose: 25.0 mg/kg/injection, schedule: Q04DX003 (ip), vehicle: saline with Tween-80) was 108 % of control and the T/C (dose: 50.0 mg/kg/injection, schedule: Q04DX003 (ip), vehicle: saline with Tween-80) was 104 % of control.

CN1CCN(c2ccc([N+](=O)[O-])c3nonc23)CC1 was tested, and the T/C (dose: 10.0 mg/kg/injection, schedule: Q01DX009 (ip), vehicle: saline with Tween-80) was 100 % of control, the T/C (dose: 20.0 mg/kg/injection, schedule: Q01DX009 (ip), vehicle: saline with Tween-80) was 100 % of control and the T/C (dose: 20.0 mg/kg/injection, schedule: Q04DX003 (ip), vehicle: saline with Tween-80) was 100 % of control. For the same compound, the T/C (dose: 40.0 mg/kg/injection, schedule: Q01DX009 (ip), vehicle: saline with Tween-80) was 99 % of control and the T/C (dose: 40.0 mg/kg/injection, schedule: Q04DX003 (ip), vehicle: saline with Tween-80) was 92 % of control.

With CC(=O)Nc1c(Cl)c(Cl)c2c(c1Cl)Cc1cc(Br)ccc1-2 the T/C (dose: 8.25 mg/kg/injection, schedule: Q01DX009 (ip), vehicle: Klucel (hydroxypropylcellulose) (HPC)) was 100 % of control and 113 % of control, the T/C [1] was 100 % of control and 118 % of control and the T/C (dose: 18.75 mg/kg/injection, schedule: Q01DX009 (ip), vehicle: Klucel (hydroxypropylcellulose) (HPC)) was 100 % of control and 109 % of control. For the same compound, the T/C [2] was 110 % of control, the T/C [3] was 90 % of control and the T/C [4] was 95 % of control.

CC(=O)Nc1ccc2c(O)cc(S(=O)(=O)O)cc2c1 was tested, and the T/C [5] was 107 % of control, the T/C [6] was 98 % of control and the T/C [7] was 114 % of control.

In the case of NC(Cc1c[nH]c2ccc(N(CCCl)CCCl)cc12)C(=O)O (centres undefined), the T/C (dose: 0.5 mg/kg/injection, schedule: Q01DX010 (ip), vehicle: saline) is reported as 218 % of control and the T/C (dose: 1.0 mg/kg/injection, schedule: Q01DX010 (ip), vehicle: saline) is reported as 290 % of control.

NC(=S)N/N=C/C=C/c1ccccc1 was tested, and the T/C (dose: 100.0 mg/kg/injection, schedule: Q04DX002 (ip), vehicle: Klucel (hydroxypropylcellulose) (HPC)) was 96 % of control.

For O=C(N/N=C\c1ccc(N(CCCl)CCCl)cc1)c1cccnc1, the T/C (dose: 100.0 mg/kg/injection, schedule: Q01DX009 (ip), vehicle: gum acacia) was 112 % of control and the T/C (dose: 200.0 mg/kg/injection, schedule: Q01DX009 (ip), vehicle: gum acacia) was 172 % of control.

O=C(O)CCSSc1ccc([N+](=O)[O-])cc1[N+](=O)[O-] was tested, and the T/C (dose: 6.25 mg/kg/injection, schedule: Q01DX009 (ip), vehicle: Klucel (hydroxypropylcellulose) (HPC)) was 95 % of control, the T/C (dose: 6.25 mg/kg/injection, schedule: Q04DX003 (ip), vehicle: Klucel (hydroxypropylcellulose) (HPC)) was 100 % of control and the T/C [1] was 100 % of control. The T/C (dose: 12.5 mg/kg/injection, schedule: Q04DX003 (ip), vehicle: Klucel (hydroxypropylcellulose) (HPC)) was 109 % of control, the T/C [2] was 104 % of control and the T/C (dose: 25.0 mg/kg/injection, schedule: Q04DX003 (ip), vehicle: Klucel (hydroxypropylcellulose) (HPC)) was 109 % of control.

In the case of CCCOP(=S)(N1CC1C)N1CC1(C)C (centres undefined), the T/C (dose: 33.0 mg/kg/injection, schedule: Q01DX009 (ip), vehicle: saline with Tween-80) is reported as 154 % of control, the T/C [8] is reported as 186 % of control and the T/C (dose: 75.0 mg/kg/injection, schedule: Q01DX009 (ip), vehicle: saline with Tween-80) is reported as 190 % of control. The T/C (dose: 100.0 mg/kg/injection, schedule: Q04DX003 (ip), vehicle: saline with Tween-80) was 159 % of control and 166 % of control, the T/C (dose: 150.0 mg/kg/injection, schedule: Q04DX003 (ip), vehicle: saline with Tween-80) was 208 % of control and the T/C (dose: 200.0 mg/kg/injection, schedule: Q04DX003 (ip), vehicle: saline with Tween-80) was 154 % of control.

For N#Cc1ccc(OC(=O)c2ccc(N=C(N)N)cc2)cc1, the T/C [4] was 100 % of control, the T/C [5] was 104 % of control and the T/C [9] was 104 % of control. The T/C [6] was 90 % of control and the T/C [10] was 113 % of control.

For NC1CONC1=O (centres undefined), the T/C [3] was 90 % of control, the T/C (dose: 25.0 mg/kg/injection, schedule: Q04DX003 (ip), vehicle: saline) was 104 % of control and the T/C [4] was 95 % of control. The T/C (dose: 50.0 mg/kg/injection, schedule: Q04DX003 (ip), vehicle: saline) was 100 % of control, the T/C [5] was 90 % of control and the T/C [9] was 104 % of control. The T/C [10] was 100 % of control, the T/C [7] was 100 % of control and the T/C [11] was 100 % of control.

O=C(/C=C/c1ccc(OCc2ccccc2)cc1)c1ccc(Cl)c(Cl)c1Cl was tested, and the T/C [8] was 98 % of control, the T/C (dose: 100.0 mg/kg/injection, schedule: Q01DX009 (ip), vehicle: saline with Tween-80) was 90 % of control and the T/C (dose: 200.0 mg/kg/injection, schedule: Q01DX009 (ip), vehicle: saline with Tween-80) was 89 % of control.

O=S(=O)(O)O.[NH-]CC(N)=O.[NH-]CC(N)=O.[Ni+2] was tested, and the T/C (dose: 6.25 mg/kg/injection, schedule: Q01DX009 (ip), vehicle: water) was 115 % of control, the T/C (dose: 12.5 mg/kg/injection, schedule: Q01DX009 (ip), vehicle: water) was 110 % of control and the T/C (dose: 12.5 mg/kg/injection, schedule: Q04DX003 (ip), vehicle: water) was 100 % of control. For the same compound, the T/C (dose: 25.0 mg/kg/injection, schedule: Q04DX003 (ip), vehicle: water) was 90 % of control and the T/C (dose: 50.0 mg/kg/injection, schedule: Q04DX003 (ip), vehicle: water) was 109 % of control.

In the case of CC1NC(=O)C(NC(=O)c2cnc3ccccc3n2)COC(=O)C(C(C)C)N(C)C(=O)C2CSSCC(C(=O)N(C)C(C(C)C)C(=O)OCC(NC(=O)c3cnc4ccccc4n3)C(=O)NC(C)C(=O)N2C)N(C)C1=O (centres undefined) (I: Quinoxaline2carbonyl-SA[NMeC][NMeV] / II: Quinoxaline2carbonyl-SA[NMeC][NMeV]; ester I:1-II:C, I:C-II:1; disulfide I:3-II:3; configuration not given here), the T/C (dose: 11.0 micrograms/kg/injection, schedule: Q01DX009 (ip), vehicle: saline) is reported as 124 % of control, the T/C (dose: 22.5 micrograms/kg/injection, schedule: Q01DX009 (ip), vehicle: saline) is reported as 115 % of control and the T/C (dose: 45.0 micrograms/kg/injection, schedule: Q01DX009 (ip), vehicle: saline) is reported as 113 % of control. The T/C (dose: 90.0 micrograms/kg/injection, schedule: Q01DX009 (ip), vehicle: saline) was 200 % of control.

Nc1ncnc2c1ncn2C1CC(O)C(CO)O1 (centres undefined) was tested, and the T/C (dose: 440.0 mg/kg/injection, schedule: Q01DX009 (ip), vehicle: saline with Tween-80) was 93 % of control, the T/C (dose: 660.0 mg/kg/injection, schedule: Q01DX009 (ip), vehicle: saline with Tween-80) was 93 % of control and the T/C (dose: 1000.0 mg/kg/injection, schedule: Q01DX009 (ip), vehicle: saline with Tween-80) was 105 % of control.

For OCCN1CCNC1=S, the T/C [9] was 95 % of control, the T/C [10] was 91 % of control and the T/C [11] was 91 % of control.

Cc1cc(C)c(-n2c(-c3ccc(Cl)cc3)nnc2-c2ccc(Br)cc2)c(C)c1 was tested, and the T/C (dose: 100.0 mg/kg/injection, schedule: Q04DX003 (ip), vehicle: Klucel (hydroxypropylcellulose) (HPC)) was 104 % of control, the T/C (dose: 200.0 mg/kg/injection, schedule: Q04DX003 (ip), vehicle: Klucel (hydroxypropylcellulose) (HPC)) was 100 % of control and the T/C (dose: 400.0 mg/kg/injection, schedule: Q04DX003 (ip), vehicle: Klucel (hydroxypropylcellulose) (HPC)) was 90 % of control.

With O=C1OC2(CCCCC2)OC(=O)C1=C/C=C/c1ccc([N+](=O)[O-])o1 the T/C (dose: 3.13 mg/kg/injection, schedule: Q01DX009 (ip), vehicle: saline with Tween-80) was 100 % of control, the T/C (dose: 6.25 mg/kg/injection, schedule: Q01DX009 (ip), vehicle: saline with Tween-80) was 98 % of control and the T/C (dose: 12.5 mg/kg/injection, schedule: Q01DX009 (ip), vehicle: saline with Tween-80) was 91 % of control and 121 % of control. The T/C (dose: 25.0 mg/kg/injection, schedule: Q01DX009 (ip), vehicle: saline with Tween-80) was 97 % of control and 99 % of control and the T/C [8] was 112 % of control.
